Read-outs that look alike come from different tables or passages of the source.
Assays:
[1] = target: T1, human recombinant COX2 (hCOX2) (UniProt P35354); test: LCMS-based COX2 enzymatic inhibition assay (PGE2 quantification); type: biochemical; parameters: COX2 2 minutes pge2/pge2d4 area ratio Avg; other: 2 minutes; readout pge2/pge2d4 area ratio; average; COX2 2 minutes pge2/pge2d4 area ratio Avg; LLE; average LLE; COX2 2 minutes pge2 area (counts) Avg; readout pge2 area (counts); other: 2 min; "ovine COX2 (oCOX2), human recombinant COX2 (hCOX2)"; settings: 2 minutes; for COX2 2 minutes pge2/pge2d4 area ratio Avg. LLE / COX2 2 minutes pge2 area (counts) Avg. LLE: average LLE; for IC50: average
T1 sequence (P35354 1-604): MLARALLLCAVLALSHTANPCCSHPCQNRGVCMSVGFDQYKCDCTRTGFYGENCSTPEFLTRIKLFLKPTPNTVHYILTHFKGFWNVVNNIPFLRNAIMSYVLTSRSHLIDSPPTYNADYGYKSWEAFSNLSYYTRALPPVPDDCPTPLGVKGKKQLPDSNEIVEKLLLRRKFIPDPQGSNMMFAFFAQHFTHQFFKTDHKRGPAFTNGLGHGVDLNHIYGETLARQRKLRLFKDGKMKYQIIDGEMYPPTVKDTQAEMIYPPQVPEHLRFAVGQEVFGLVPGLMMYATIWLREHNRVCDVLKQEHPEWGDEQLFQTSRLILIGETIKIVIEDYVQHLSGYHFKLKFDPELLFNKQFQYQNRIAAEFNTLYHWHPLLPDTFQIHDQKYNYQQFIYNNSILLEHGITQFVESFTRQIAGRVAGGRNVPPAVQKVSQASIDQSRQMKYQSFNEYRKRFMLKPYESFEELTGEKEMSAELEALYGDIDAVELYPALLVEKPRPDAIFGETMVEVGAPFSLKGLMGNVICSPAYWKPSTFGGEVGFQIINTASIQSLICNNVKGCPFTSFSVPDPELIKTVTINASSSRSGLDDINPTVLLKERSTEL
Method in brief: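 Ovine COX-1 (0.1 μg) or human recombinant COX2 (0.2 μg) in 100 mM Tris.HCl pH 8.0 with hematin and epinephrine, preincubated with inhibitor 10 min at 37 °C. Reaction with 5 μM arachidonic acid stopped after 2 min with HCl; PGE2 quantified by LC-MS-MS. IC50 from 12 concentrations in triplicate.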

[2] = target: T2, ovine COX-1 (oCOX-1) (Ovis aries, UniProt P05979); test: LCMS-based COX-1 enzymatic inhibition assay (PGE2 quantification); type: biochemical; settings: for COX1 10 minutes pge2/pge2d4 area ratio Avg. LLE / COX1 10 minutes pge2 area (counts) Avg. LLE: average LLE
T2 construct: purchased Cayman Chemicals (Ann Arbor, Mich.)
T2 sequence (P05979 25-600): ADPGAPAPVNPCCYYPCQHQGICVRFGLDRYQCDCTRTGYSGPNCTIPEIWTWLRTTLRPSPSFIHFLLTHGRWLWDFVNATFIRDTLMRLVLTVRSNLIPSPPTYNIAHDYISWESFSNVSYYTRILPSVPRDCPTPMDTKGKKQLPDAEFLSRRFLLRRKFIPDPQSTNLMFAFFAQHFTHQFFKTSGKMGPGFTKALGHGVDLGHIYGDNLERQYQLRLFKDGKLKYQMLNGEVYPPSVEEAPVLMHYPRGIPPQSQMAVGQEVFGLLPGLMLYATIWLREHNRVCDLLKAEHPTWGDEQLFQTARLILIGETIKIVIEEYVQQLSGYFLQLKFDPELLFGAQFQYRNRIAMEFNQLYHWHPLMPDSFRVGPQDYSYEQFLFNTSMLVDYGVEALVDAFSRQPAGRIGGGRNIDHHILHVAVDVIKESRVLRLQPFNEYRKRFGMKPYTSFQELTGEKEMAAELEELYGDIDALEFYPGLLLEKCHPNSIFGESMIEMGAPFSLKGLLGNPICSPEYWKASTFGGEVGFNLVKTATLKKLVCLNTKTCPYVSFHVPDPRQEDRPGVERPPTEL
Procedure: We have adapted a previously reported cyclooxygenase enzymatic assay utilizing LCMS quantification of PGE2 as the product of COX-1 and COX2 catalyzed conversion of arachidonic acid to evaluate the binding properties of newly synthesized ligands [Cao, 2011]. These optimized and miniaturized (384-well plates) LCMS-based COX-1 and COX2 enzymatic assays enabled us to quickly evaluate newly synthesized ligands for COX2 binding affinity and selectivity vs COX-1. Using a shorter ligand-enzyme incubation time in the LCMS assay (2 minutes vs 10 minutes) also permitted us to prioritize ligands with faster binding kinetics. Considering the relatively slow on-rate kinetics of known coxibs, due to their 3-step binding mechanism [Marnett, 2009], we believe that optimizing this critical parameter will be key to the successful development of a COX2 PET tracer. Using these enzymatic assays, we have evaluated>200 newly synthesized ligands against COX2 and >20 ligands against COX-1. Another critical property necessary for a good PET radiotracer is to have low non-specific binding (NSB) to increase the free fraction and maximize the signal to noise ratio. This property can be evaluated using in-vitro protein binding assays, and we have now evaluated>50 newly synthesized ligands in mouse, rat and human plasma protein binding (PPB) assays as well as >15 ligands in a mouse brain protein binding (BPB) assay.
Ovine COX-1 (oCOX-1), ovine COX2 (oCOX2), human recombinant COX2 (hCOX2), arachidonic acid, PGE2, d4-PGD2, and […] (labeled with deuterium atoms at positions 3 and 4) were purchased from Cayman Chemicals (Ann Arbor, Mich.). The cofactors (−)epinephrine and hematin, and the COX inhibitors indomethacin, resveratrol and diclofenac were purchased from Sigma-Aldrich (St. Louis, Mo.). Celecoxib was purchased from 3B PharmaChem International (Wuhan, China). All organic solvents were HPLC grade or better and were purchased from Thermo Fisher (Hanover Park, Ill.). Formic acid was purchased from EMD Chemicals (San Diego, Calif.). Purified water was prepared by using a Millipore Milli-Q purification system (Millipore, Billerica, Mass.). All other chemicals and solvents were ACS reagent grade, unless stated otherwise.
In an Eppendorf tube, 146 μL of 100 mM Tris.HCl (pH 8.0) buffer, 2 μL of 100 μM hematin (co-factor) and 10 μL of 40 mM L-epinephrine (co-factor) were mixed at room temperature. Next, 20 μL of Tris.HCl (pH 8.0) buffer containing 0.2 μg COX2 or 0.1 μg COX-1 (approximately 1 unit of enzyme; 1 unit COX utilizes 1 nmol 02/mg/min at 37° C.) was added, and the solution was incubated at room temperature for 2 min. A 2 μL aliquot of the COX inhibitor in DMSO was added to the enzyme solution and preincubated at 37° C. for 10 min. Negative controls were identical except that 2 μL aliquots of DMSO without inhibitor were used instead.
Each COX reaction was initiated by adding 20 μL of arachidonic acid in Tris.HCl (pH 8.0) buffer to give a final concentration of 5 μM; and the reaction was terminated after 2 min by adding 20 μL of 2.0 M HCl. The surrogate standards d4-PGE2 and d4-PGD2 (10 μL aliquot of 50 ng/mL solution in methanol) were added to correct for errors or degradation during sample handling and for variation in injection volume or instrument response during LC-MS-MS. After 30 min, PGE2, PGD2 and their surrogate standards were extracted from each incubation mixture using 800 μL hexane/ethyl acetate (50:50, v/v). The organic phase was removed, evaporated to dryness, and reconstituted in 100 μL methanol/water (50:50, v/v) for analysis using LC-MS-MS.
The concentration of PGE2 in each sample was measured using LC-MS-MS, and the percent of COX inhibition by each test solution was determined by comparing the amount of PGE2 produced in the experiment with that produced in the negative control incubation. The formation of PGD2 was measured for quality control purposes, since the levels of PGD2 should be proportional to those of PGE2. […]

[3] = readout pge2/pge2d4 area ratio, read-out: COX2 2 minutes pge2/pge2d4 area ratio Avg. IC50
[4] = readout pge2 area (counts), read-out: COX2 2 minutes pge2 area (counts) Avg. IC50
[5] = 10 minutes, readout pge2/pge2d4 area ratio
[6] = 10 minutes, readout pge2/pge2d4 area ratio, average, read-out: COX1 10 minutes pge2/pge2d4 area ratio Avg. IC50
[7] = 10 minutes, readout pge2 area (counts)
[8] = 10 minutes, readout pge2 area (counts), average, read-out: COX1 10 minutes pge2 area (counts) Avg. IC50

| Structure (SMILES) | COX2 2 minutes pge2/pge2d4 area ratio Avg. LLE ([1]; readout pge2/pge2d4 area ratio) | IC50 [1, 3] | COX2 2 minutes pge2 area (counts) Avg. LLE ([1]; readout pge2 area (counts)) | IC50 [1, 4] | COX1 10 minutes pge2/pge2d4 area ratio Avg. LLE [2, 5] | IC50 [2, 6] | COX1 10 minutes pge2 area (counts) Avg. LLE [2, 7] | IC50 [2, 8] | IC50 [2] |
| --- | --- | --- | --- | --- | --- | --- | --- | --- | --- |
| C[C@H](Oc1cccc(-c2ccc(S(C)(=O)=O)cc2)n1)c1cccs1 (single isomer, unassigned) [Compound 46] | 3.462 | 20.2 nM | 3.431 | 23.5 nM | 0.04315 | 50900 nM | 0.2102 | 34700 nM | – |
| CSc1ccc(NCc2cccs2)nc1-c1ccc(S(C)(=O)=O)cc1 [Compound 20] | 3.9449 | 10.8 nM | 3.942 | 11.5 nM | 0.214 | – | 0.214 | – | 52000 nM |
| Cc1ncc(-c2ccc(S(C)(=O)=O)cc2)nc1OCc1cccs1 [Compound 38] | 5.142 | 18.4 nM | 5.088 | 20.6 nM | 3.526 | 699 nM | 3.306 | 1230 nM | – |
| CS(=O)(=O)c1ccc(-c2coc3ccc(NCc4cccs4)nc23)cc1 [Compound 39] | – | 18.6 nM | – | 18.4 nM | – | – | – | – | 52000 nM |
| CS(=O)(=O)c1ccc(-c2cccc(NCc3cccs3)c2)cc1 [Compound 42] | 3.551 | 19.5 nM | 3.78 | 6.71 nM | 0.01187 | 36200 nM | −0.01745 | 38700 nM | – |
| CS(=O)(=O)c1ccc(-c2ccc(F)c(OCc3cccs3)n2)cc1 [Compound 45] | 3.877 | 20 nM | 3.805 | 23.2 nM | 1.328 | 6640 nM | 1.301 | 7060 nM | – |
| COc1ncc(NCc2ccccc2)nc1-c1ccc(S(C)(=O)=O)cc1 [Compound 49] | 5.235 | 22.2 nM | 5.228 | 21 nM | 1.734 | – | 1.734 | – | 52000 nM |

Further compounds by falling IC50 [1, 3], results first:

| COX2 2 minutes pge2/pge2d4 area ratio Avg. LLE ([1]; readout pge2/pge2d4 area ratio) | IC50 [1, 3] | COX2 2 minutes pge2 area (counts) Avg. LLE ([1]; readout pge2 area (counts)) | IC50 [1, 4] | COX1 10 minutes pge2/pge2d4 area ratio Avg. LLE [2, 5] | IC50 [2, 6] | COX1 10 minutes pge2 area (counts) Avg. LLE [2, 7] | IC50 [2, 8] | Structure (SMILES) | IC50 [2] |
| --- | --- | --- | --- | --- | --- | --- | --- | --- | --- |
| 5.44 | 18.1 nM | 5.694 | 14.3 nM | 2.056 | 39200 nM | 2.13 | 33100 nM | CS(=O)(=O)c1ccc(-c2cccc(OCc3cccs3)n2)nc1 [Compound 37] | – |
| 3.218 | 15.2 nM | 3.116 | 18.5 nM | 1.013 | 2220 nM | 0.929 | 2710 nM | CS(=O)(=O)c1ccc(-c2ccc3ccn(Cc4cccs4)c3n2)cc1 [Compound 31] | – |
| 3.668 | 15 nM | 3.685 | 12.2 nM | 0.1181 | 42800 nM | 0.2149 | 34300 nM | CS(=O)(=O)c1ccc(-c2cccc(OCc3ccc(F)s3)n2)cc1 [Compound 30] | – |
| 4.584 | 8.42 nM | 4.6244 | 8.13 nM | – | – | 0.8485 | 42800 nM | CS(=O)(=O)c1ccc(-c2cccc(NCc3ccsc3)n2)cc1 [Compound 11] | – |
| 5.4246 | 8.12 nM | 5.349 | 9.54 nM | 2.513 | 5850 nM | 2.529 | 5640 nM | Cc1csc(COc2cncc(-c3ccc(S(C)(=O)=O)cc3)n2)c1 [Compound 10] | – |
| 4.364 | 6.26 nM | 4.247 | 8.2 nM | 1.694 | 2860 nM | 1.673 | 3000 nM | CS(=O)(=O)c1ccc(-c2cc(F)cc(OCc3cccs3)n2)cc1 [Compound 6] | – |

From US20220348590A1, “CYCLOOXYGENASE-2 INHIBITORS AND USES THEREOF” (The Board Institute, Inc., priority 2019, published 2022)
